Reference: patent publication US20080161393A1, “Use of prodrugs of GABA analogs for treating disease” (priority 2006, published 2008)

What was measured:
[1] = Randomized, crossover, fed/fasted single-dose pharmacokinetic study of oral sustained release tablets of compound (3) in healthy adult subjects; format: in vivo, human
Method: A randomized, crossover, fed/fasted single-dose study of the safety, tolerability, and pharmacokinetics of oral administration of 1-{[(α-isobutanoyloxyethoxy)carbonyl]aminomethyl}-1-cyclohexane acetic acid (3) in healthy adult subjects was conducted. The oral sustained release dosage form of Example 6 (uncoated) was used in this study. The study was designed to evaluate the performance of this formulation in humans in comparison with the commercial gabapentin capsule formulation (Neurontin®, Pfizer). Twelve healthy adult volunteers (7 males and 5 females) participated in the study. Mean body weight was 75.6 kg. All subjects received two different treatments in a random order with a one-week washout between treatments. The two treatments were: A) a single oral dose of Example 6 tablets (2×600 mg) after an overnight fast; and B) a single oral dose of Example 6 tablets (2×600 mg) after a high fat breakfast.
Blood and plasma samples were collected from all subjects prior to dosing, and at 0.5, 1, 1.5, 2, 3, 4, 6, 8, 12, 18, 24, and 36 hours after dosing. Urine samples were collected from all subjects prior to dosing, and complete urine output was obtained at the 0-4 h, 4-8 h, 8-12 h, 12-18 h, 18-24 h, and 24-36 h intervals after dosing. Blood samples were quenched immediately with methanol and stored frozen at […]. Sample aliquots were prepared for analysis of gabapentin and compound (3) using sensitive and specific LC/MS/MS methods.

[2] = cited from earlier work

Row | Structure (SMILES) | AUC of compound (3) in blood as % of corresponding AUC of gabapentin in blood ([1]; fasted subjects) [%] | Maximum intact compound (3) concentration as % of corresponding peak gabapentin concentration ([1]; fasted subjects) | AUC of compound (3) in blood as % of corresponding AUC of gabapentin in blood ([1]; fed subjects) | Maximum intact compound (3) concentration as % of corresponding peak gabapentin concentration ([1]; fed subjects) | Typical Tmax of immediate release gabapentin [2] [h]
1 | CC(OC(=O)NCC1(CC(=O)O)CCCCC1)OC(=O)C(C)C (stereo not drawn) [compound (3), 1-{[(α-Isobutanoyloxyethoxy)carbonyl]aminomethyl}-1-Cyclohexane Acetic Acid] | 0.3 | approximately 1.0% | less than 0.1% | approximately 0.3% | –
2 | NCC1(CC(=O)O)CCCCC1 [gabapentin] | – | – | – | – | 2 to 4
